Laboratory results reported in patent publication US20100298285A1, “Biclycloheteroaryl Compounds as P2x7 Modulators and Uses Thereof” (priority 2006, published 2010).

The compounds below were run on IL-1β release, THP-1 cells (assay: IL-1β release assay in differentiated THP-1 cells stimulated with BzATP (Example 9)). Settings: Homo sapiens; 0.1 μM compound ("*" symbols); differentiated THP-1 cells, 250 uM BzATP; read-out: IL-1β% Inhib. @ 0.3 or 0.1 μM.
Type: cell-based
Description: THP-1 cells (ATCC Cat # 285-IF-100) are plated in 96 well plates at a concentration of 200,000 cells per well and allowed to differentiate in RPMI-1640 media (ATCC Cat # 30-2001) containing 10% FBS, 100 IU/mL penicillin, 100 ug/mL streptomycin, 100 ng/mL LPS and 100 ng/mL IFN-γ for 16 hours. Following differentiation, the cells are treated for an additional 2 hours in RPMI-1640 media containing 100 IU/mL penicillin, 100 ug/mL streptomycin and fresh LPS at 100 ng/mL. The cells are then pretreated for 30 minutes with the compound of interest at the appropriate concentration in RPMI media containing 100 IU/mL penicillin, 100 ug/mL streptomycin. Following the pretreatment 2′,3′-O-(4-benzoylbenzoyl)-adenosine 5′-triphosphate (Sigma Aldrich Cat # B6396) is added to a final concentration of 250 uM and the cells are incubated for an additional 45 minutes. 30 uL of cell supernatant is then collected and IL-1β levels determined via ELISA (R&D systems Cat. # HSLB50) according to manufacturer's recommendations using the Tecan Safire plate reader. Background adjusted IL-1β levels of drug treated and non-treated cells are used to calculate the percent inhibition.
The following compounds have been or can be prepared according to the synthetic methods described above. For the purpose of Table 1 below, activity of each compound, which can be determined using the IL-1β assay method described in Example 9, is expressed as follows: […]
The compounds set forth in Table 1 were tested for activity in a cellular model as described herein. Specifically, cells were pretreated with differing amounts of the compound under test and released IL-1β determined as in Example 9, above. Measurements were made and IC50 values, presented in Table 2, below, were determined by fitting the data to a four parameter logistic equation using GraphPad Prism software (GraphPad Software, Inc). The equation may be expressed by the following formula:
Y=Bottom+(Top−Bottom)/(1+10̂((Log EC50−X)*HillSlope))
Where X is the logarithm of concentration, Y is the response and Y starts at Bottom and goes to Top with a sigmoid shape.

Row | Compound | inhibition at 0.1 µM [%]
1 | O=C(Cc1ccc(C(F)(F)F)cc1)Nc1c(Cl)ccc2c1CCN(S(=O)(=O)c1cccc(Cl)c1Cl)C2 [Compound 3014] | 0 to 25
2 | O=C(Cc1ccc(C(F)(F)F)cc1)Nc1c(Cl)ccc2c1CCN(S(=O)(=O)c1ccc(C(F)(F)F)cc1Cl)C2 [Compound 3021] | 0 to 25
3 | O=C(Cc1ccc(C(F)(F)F)cc1)Nc1c(Cl)ccc2c1CCN(S(=O)(=O)c1cccc(F)c1)C2 [Compound 3003] | 0 to 25
4 | CN(C)CCC(=O)N1CCc2c(cccc2NC(=O)Cc2ccc(C(F)(F)F)c(F)c2)C1 [Compound 3035] | 0 to 25
5 | O=C(Cc1ccc(C(F)(F)F)cc1)Nc1c(Cl)ccc2c1CCN(S(=O)(=O)c1ccc(F)cc1F)C2 [Compound 3007] | 0 to 25
6 | O=C(Cc1ccc(C(F)(F)F)cc1)Nc1c(Cl)ccc2c1CCN(S(=O)(=O)c1ccc(F)cc1)C2 [Compound 3004] | 0 to 25
7 | O=C(Cc1ccc(C(F)(F)F)cc1)Nc1c(Cl)ccc2c1CCN(S(=O)(=O)c1cc(C(F)(F)F)ccc1Cl)C2 [Compound 3022] | 0 to 25
8 | O=C(Cc1ccc(C(F)(F)F)cc1)Nc1c(Cl)ccc2c1CCN(S(=O)(=O)c1ccc(F)cc1Cl)C2 [Compound 3017] | 0 to 25

Same assay, conditions: Homo sapiens; 0.3 μM compound ("+" symbols); differentiated THP-1 cells, 250 uM BzATP; read-out: IL-1β% Inhib. @ 0.3 or 0.1 μM

Row | Compound | inhibition at 0.3 µM [%]
9 | Cc1ccc2c(c1NC(=O)Cc1ccc(C(F)(F)F)cc1)CCN(C(=O)[C@H]1CCCN1)C2 [Compound 3060, N-[6-Methyl-2-((R)-pyrrolidine-2-carbonyl)-1,2,3,4-tetrahydro-isoquinolin-5-yl]-2-(4-trifluoromethyl-phenyl)-acetamide] | ≥ 76
10 | O=C(Cc1cccc(C(F)(F)F)c1F)Nc1c(Cl)ccc2c1CCN(C(=O)COCc1ccccc1)C2 [Compound 3160] | 0 to 25
11 | CC(C)C(=O)N1CCc2c(ccc(Cl)c2NC(=O)Cc2cccc(C(F)(F)F)c2F)C1 [Compound 3150] | 0 to 25
12 | CCCc1ccc(C(=O)N2CCc3c(ccc(Cl)c3NC(=O)Cc3ccc(C(F)(F)F)c(F)c3)C2)cc1 [Compound 3084] | 0 to 25
13 | O=C(Cc1ccc(C(F)(F)F)c(F)c1)Nc1cccc2c1CCN(C(=O)[C@@H]1CCCN1)C2 [Compound 3055] | 51 to 75
14 | O=C(Cc1ccc(C(F)(F)F)c(F)c1)Nc1c(Cl)ccc2c1CCN(C(=O)C1CC1)C2 [Compound 3102] | 0 to 25
15 | CC(C)C(=O)N1CCc2c(ccc(Cl)c2NC(=O)Cc2ccc(C(F)(F)F)c(F)c2)C1 [Compound 3088] | 0 to 25
16 | CC(Oc1ccccc1)C(=O)N1CCc2c(ccc(Cl)c2NC(=O)Cc2ccc(C(F)(F)F)c(F)c2)C1 (stereo not drawn) [Compound 3135] | 26 to 50
17 | O=C(Cc1cccc(C(F)(F)F)c1F)Nc1c(Cl)ccc2c1CCN(C(=O)C1CCC1)C2 [Compound 3164] | 0 to 25
18 | O=C(Cc1cccc(C(F)(F)F)c1F)Nc1c(Cl)ccc2c1CCN(C(=O)CCc1ccccc1)C2 [Compound 3151] | 26 to 50
19 | O=C(Cc1cccc(C(F)(F)F)c1F)Nc1c(Cl)ccc2c1CCN(C(=O)Cc1ccc(Cl)cc1)C2 [Compound 3168] | 0 to 25
20 | Cc1ccc2c(c1NC(=O)Cc1ccc(C(F)(F)F)c(F)c1)CCN(C(=O)[C@H]1CCCN1)C2 [Compound 3061, 2-(3-Fluoro-4-trifluoromethyl-phenyl)-N-[6-methyl-2-((R)-pyrrolidine-2-carbonyl)-1,2,3,4-tetrahydro-isoquinolin-5-yl]-acetamide] | ≥ 76
21 | C[C@H](N)C(=O)N1CCc2c(cccc2NC(=O)Cc2ccc(C(F)(F)F)c(F)c2)C1 [Compound 3054] | 0 to 25
22 | O=C(Cc1ccc(C(F)(F)F)c(F)c1)Nc1c(Cl)ccc2c1CCN(C(=O)Cc1ccc(F)cc1)C2 [Compound 3083] | 0 to 25
23 | O=C(Cc1ccc(C(F)(F)F)cc1)Nc1c(Cl)ccc2c1CCN(S(=O)(=O)c1ccccc1Cl)C2 [Compound 3001, N-[6-Chloro-2-(2-chloro-benzenesulfonyl)-1,2,3,4-tetrahydro-isoquinolin-5-yl]-2-(4-trifluoromethyl-phenyl)-acetamide] | ≥ 76
24 | O=C(Cc1ccc(C(F)(F)F)c(F)c1)Nc1c(Cl)ccc2c1CCN(C(=O)c1cccnc1)C2 [Compound 3079] | 0 to 25
25 | O=C(Cc1ccc(C(F)(F)F)c(F)c1)Nc1c(Cl)ccc2c1CCN(C(=O)c1ccccc1C(F)(F)F)C2 [Compound 3106] | 26 to 50
26 | COc1cc(OC)cc(C(=O)N2CCc3c(ccc(Cl)c3NC(=O)Cc3ccc(C(F)(F)F)c(F)c3)C2)c1 [Compound 3087] | 0 to 25

Row | Compound | inhibition at 0.3 µM [%]
27 | O=C(Cc1ccc(C(F)(F)F)c(F)c1)Nc1c(Cl)ccc2c1CCN(C(=O)c1ccncc1)C2 [Compound 3126] | 0 to 25
28 | CC(C)(C)C(=O)N1CCc2c(ccc(Cl)c2NC(=O)Cc2cccc(C(F)(F)F)c2F)C1 [Compound 3155] | 0 to 25
29 | O=C(Cc1ccc(C(F)(F)F)c(F)c1)Nc1c(Cl)ccc2c1CCN(C(=O)CCc1ccccc1)C2 [Compound 3089] | 0 to 25
30 | CC(C)(C)C(=O)N1CCc2c(ccc(Cl)c2NC(=O)Cc2ccc(C(F)(F)F)c(F)c2)C1 [Compound 3092] | ≥ 76
31 | O=C(Cc1ccc(C(F)(F)F)c(F)c1)Nc1cccc2c1CCN(CC(O)CF)C2 (stereo not drawn) [Compound 3064] | 0 to 25
32 | Cc1cccc(C(=O)N2CCc3c(ccc(Cl)c3NC(=O)Cc3ccc(C(F)(F)F)c(F)c3)C2)c1 [Compound 3074] | 26 to 50
33 | Cc1nn(-c2ccccc2)nc1C(=O)N1CCc2c(ccc(Cl)c2NC(=O)Cc2cccc(C(F)(F)F)c2F)C1 [Compound 3172] | 0 to 25
34 | O=C(Cc1ccc(C(F)(F)F)c(F)c1)Nc1c(Cl)ccc2c1CCN(C(=O)c1ccc(Cl)cc1)C2 [Compound 3073] | 0 to 25
35 | O=C(Cc1ccc(C(F)(F)F)c(F)c1)Nc1c(Cl)ccc2c1CCN(C(=O)c1nccs1)C2 [Compound 3134] | 26 to 50
36 | Cc1ccc2c(c1NC(=O)Cc1cccc(C(F)(F)F)c1F)CCN(C(=O)[C@H]1CCCN1)C2 [Compound 3062] | ≥ 76
37 | CS(=O)(=O)N1CCc2c(ccc(Cl)c2NC(=O)Cc2ccc(C(F)(F)F)cc2)C1 [Compound 3050] | 26 to 50
38 | COc1ccc(OC)c(CC(=O)N2CCc3c(ccc(Cl)c3NC(=O)Cc3ccc(C(F)(F)F)c(F)c3)C2)c1 [Compound 3081] | 0 to 25
39 | O=C(Cc1cccc(C(F)(F)F)c1F)Nc1c(Cl)ccc2c1CCN(C(=O)/C=C/c1ccccc1)C2 [Compound 3182] | 0 to 25
40 | O=C(Cc1cccc(C(F)(F)F)c1F)Nc1c(Cl)ccc2c1CCN(C(=O)c1cc(F)c(F)cc1F)C2 [Compound 3143] | 0 to 25
41 | Cc1cc(C(=O)N2CCc3c(ccc(Cl)c3NC(=O)Cc3cccc(C(F)(F)F)c3F)C2)no1 [Compound 3180] | 0 to 25
42 | CCC(=O)N1CCc2c(ccc(Cl)c2NC(=O)Cc2cccc(C(F)(F)F)c2F)C1 [Compound 3138] | 0 to 25
43 | O=C(Cc1cccc(C(F)(F)F)c1F)Nc1c(Cl)ccc2c1CCN(C(=O)CC1CCCC1)C2 [Compound 3166] | 0 to 25
44 | O=C(Cc1cccc(C(F)(F)F)c1F)Nc1c(Cl)ccc2c1CCN(C(=O)c1cccc(Cl)c1)C2 [Compound 3156] | 0 to 25

Same assay, conditions: Homo sapiens; THP-1 cells, BzATP 250 uM, four parameter logistic fit

Row | Compound | IC50 [µM]
45 | COc1ccc2c(c1NC(=O)Cc1ccc(C(F)(F)F)c(F)c1)CCN(C(=O)C1CC1)C2 [Compound 3475] | 0.243
46 | Cc1ccc2c(c1NC(=O)Cc1ccc(C(F)(F)F)cc1)CCN(C(=O)[C@H]1CCCN1)C2 [Compound 3060, N-[6-Methyl-2-((R)-pyrrolidine-2-carbonyl)-1,2,3,4-tetrahydro-isoquinolin-5-yl]-2-(4-trifluoromethyl-phenyl)-acetamide] | 0.0644
47 | O=C(Cc1ccc(C(F)(F)F)c(F)c1)Nc1cccc2c1CCN(C(=O)[C@@H]1CCCN1)C2 [Compound 3055] | 0.182
48 | O=C(Cc1cccc(C(F)(F)F)c1F)Nc1c(Cl)ccc2c1CCN(S(=O)(=O)C1CC1)C2 [Compound 3313] | 0.0348
49 | Cc1ccc2c(c1NC(=O)Cc1ccc(C(F)(F)F)c(F)c1)CCN(C(=O)[C@H]1CCCN1)C2 [Compound 3061, 2-(3-Fluoro-4-trifluoromethyl-phenyl)-N-[6-methyl-2-((R)-pyrrolidine-2-carbonyl)-1,2,3,4-tetrahydro-isoquinolin-5-yl]-acetamide] | 0.0351
50 | C[C@H](N)C(=O)N1CCc2c(cccc2NC(=O)Cc2ccc(C(F)(F)F)c(F)c2)C1 [Compound 3054] | 0.684
51 | O=C(Cc1ccc(C(F)(F)F)cc1)Nc1c(Cl)ccc2c1CCN(S(=O)(=O)c1ccccc1Cl)C2 [Compound 3001, N-[6-Chloro-2-(2-chloro-benzenesulfonyl)-1,2,3,4-tetrahydro-isoquinolin-5-yl]-2-(4-trifluoromethyl-phenyl)-acetamide] | 0.0493
52 | CN(C)CCC(=O)N1CCc2c(cccc2NC(=O)Cc2ccc(C(F)(F)F)c(F)c2)C1 [Compound 3035] | 0.967
53 | Cc1ccc2c(c1NC(=O)Cc1ccc(C(F)(F)F)c(F)c1)CCN(S(=O)(=O)CC(F)(F)F)C2 [Compound 3406] | 0.107
54 | O=C(Cc1ccc(C(F)(F)F)c(F)c1)Nc1cccc2c1CCN(CC(O)CF)C2 (stereo not drawn) [Compound 3064] | > 1
55 | CC(C)(C)C(=O)N1CCc2c(ccc(C3CC3)c2NC(=O)Cc2ccc(C(F)(F)F)c(F)c2)C1 [Compound 3482] | 0.165
56 | Cc1ccc2c(c1NC(=O)Cc1cccc(C(F)(F)F)c1F)CCN(C(=O)[C@H]1CCCN1)C2 [Compound 3062] | 0.0767
57 | Cc1ccc2c(c1NC(=O)Cc1ccc(C(F)(F)F)c(F)c1)CCN(C(=O)C1CCC1)C2 [Compound 3473] | 0.0238
58 | CS(=O)(=O)N1CCc2c(ccc(Cl)c2NC(=O)Cc2ccc(C(F)(F)F)cc2)C1 [Compound 3050] | 0.492
59 | CCS(=O)(=O)N1CCc2c(ccc(C)c2NC(=O)Cc2ccc(C(F)(F)F)c(F)c2)C1 [Compound 3433] | 0.0252
60 | O=C(Cc1ccc(C(F)(F)F)c(F)c1)Nc1cccc2c1CCN(CC(O)Cc1ccccc1)C2 (stereo not drawn) [Compound 3257] | 0.425
